Entries after “also recorded” stand apart in the source; their conditions may differ. Where no end group is shown, it is not given here.
Tests used:
[1] = molecular target: fibronectin polymerization (Homo sapiens, UniProt P02751); details: in vitro; cited from earlier work
[2] = test system: murine model of unilateral renal ischemia/reperfusion (UIR); assay: Unilateral renal ischemia/reperfusion (UIR) with daily i.p. peptide from day 7, tissues collected day 14; type: in vivo, C57BL6/J mice
Method: Starting seven days after surgery, pUR4 (25 mg/kg/d), III-11C (control; 25 mg/kg/d) or PBS were administered daily by intraperitoneal injection. Mice were sacrificed and tissues collected 14 days after surgery.
All procedures were approved by and performed according to the Department of Laboratory Animal Medicine and the Institutional Animal Care and Use Committee at the Cincinnati Children's Hospital Medical Center. Wild type C57BL6/J 9-10-week-old male mice (Jackson Laboratories) were used for these experiments.
Mice were allowed 1-2 weeks of acclimation upon arrival to the animal facility, after which they underwent unilateral ischemia/reperfusion (UIR) according to Le Clef et al., 2016.17 Briefly, mice were anesthetized with 3% isoflurane for surgical prep (abdominal hair removal, animal identification, etc.), and maintained at 1.5% isoflurane on a 37° C. heating pad throughout the procedure. Following surgical exposure of the ventral abdomen, an atraumatic clamp was placed on the left renal artery and vein for 30 minutes; verification of color change following reperfusion was performed by the surgeon before mice were sutured and glued (outer suture reinforcement), given buprenorphine and subcutaneous saline and returned to their cages. For each animal, the contralateral (right) kidney and renal blood vessels were visualized, but remained untouched. Sham animals underwent an identical surgical procedure, except that the left and right renal arteries and veins were exposed, but were not clamped. Seven (7) days after surgery, mice were weighed and randomly assigned to daily intraperitoneal (i.p.) injections of PBS, III-11C (control peptide; 25 mg/kg), or pUR4 (25 mg/kg).
14 days after UIR (7 days after the onset of daily peptide injections), mice were given 100U heparin and anesthetized with isoflurane; blood was collected and animals were perfused with cold PBS through the aortic arch. Kidneys were excised (and the capsule membrane carefully removed), weighed, and then bisected lengthwise; one half was placed in cold 4% paraformaledhyde overnight followed by paraffin embedding, the other half cut into ˜1 mm3 pieces and flash-frozen for RNA and protein isolation.
Fixed kidneys were paraffin embedded, sectioned at 8 μm and mounted onto glass slides. Prior to staining, the sections were deparaffinized in xylene and rehydrated to water through increasing dilutions of ethanol (100%, 95%, 70%, and then 50%). For picrosirius red staining, slides were incubated for 1 hour in 0.1% Sirius Red (in 1.3% aqueous picric acid), washed twice in acidified water (0.5% acetic acid), […] and mounted with Permount. Images were taken at 10× and 40× (Olympus BX-51 with a DS-Ril camera), and the percentage of red staining was quantified using Image J software (NIH) by two observers blinded to experimental conditions.
For immunofluorescent staining, deparaffinized and rehydrated sections were microwaved for 20 minutes in a sodium citrate antigen retrieval solution (Vector H-3300), and then permeabilized in 0.06% triton-X in TBS. Sections were blocked in 10% goat or donkey serum (depending on the secondary antibody) in TBS for 2 hours at room temperature, and then incubated with primary antibody in 1% serum/TBS overnight at 4° C. Antibodies used were as follows: lipocalin-2/NGAL (1:100; JM-3819, MBL Intl Corp), Tim1/Kim1 (1:100; AF1817, R&D Systems), CD45 (1:100; AF114, R&D Systems), fibronectin (1:100; ab2413, Abcam), collagen I (1:100; ab21286, Abcam), vimentin (1:100; ab45939, Abcam), alpha-smooth muscle actin (1:500; A5228, Sigma). Slides were then washed three times in TBST for 5 min each, and incubated with secondary antibodies for 45 minutes at room temperature. In these experiments the following secondary antibodies were used, all from Jackson ImmunoResearch: donkey anti-rabbit 488 (711-545-152), donkey anti-goat 488 (705-545-147), donkey anti-mouse 647 (715-605-150) and donkey anti-rabbit 647 (711-605-152). […]

[3] = test system: unilateral ureteral obstruction (UUO); details: obstructive model of kidney injury; cited from earlier work
vascular remodeling = details: localized pUR4 treatment; cited from earlier work
[4] = test system: myocardial ischemia/reperfusion (I/R) injury; details: cited from earlier work
liver fibrosis = details: localized pUR4 treatment; cited from earlier work
[5] = 2 weeks after UIR, 25 mg/kg/d, 25 mg/kg/day
[6] = 14 days after UIR, 25 mg/kg/d, 25 mg/kg/day
[7] = injured kidney, 2 weeks after UIR, 25 mg/kg/d, 25 mg/kg/day
[8] = injured vs contralateral kidney, 14 days after UIR, 25 mg/kg i.p. daily from day 7, 25 mg/kg
[9] = kidney, 2 weeks after UIR, 25 mg/kg/d
[10] = one week systemic daily administration, up to four weeks after I/R

Sequence of fibronectin polymerization (P02751 32-2477): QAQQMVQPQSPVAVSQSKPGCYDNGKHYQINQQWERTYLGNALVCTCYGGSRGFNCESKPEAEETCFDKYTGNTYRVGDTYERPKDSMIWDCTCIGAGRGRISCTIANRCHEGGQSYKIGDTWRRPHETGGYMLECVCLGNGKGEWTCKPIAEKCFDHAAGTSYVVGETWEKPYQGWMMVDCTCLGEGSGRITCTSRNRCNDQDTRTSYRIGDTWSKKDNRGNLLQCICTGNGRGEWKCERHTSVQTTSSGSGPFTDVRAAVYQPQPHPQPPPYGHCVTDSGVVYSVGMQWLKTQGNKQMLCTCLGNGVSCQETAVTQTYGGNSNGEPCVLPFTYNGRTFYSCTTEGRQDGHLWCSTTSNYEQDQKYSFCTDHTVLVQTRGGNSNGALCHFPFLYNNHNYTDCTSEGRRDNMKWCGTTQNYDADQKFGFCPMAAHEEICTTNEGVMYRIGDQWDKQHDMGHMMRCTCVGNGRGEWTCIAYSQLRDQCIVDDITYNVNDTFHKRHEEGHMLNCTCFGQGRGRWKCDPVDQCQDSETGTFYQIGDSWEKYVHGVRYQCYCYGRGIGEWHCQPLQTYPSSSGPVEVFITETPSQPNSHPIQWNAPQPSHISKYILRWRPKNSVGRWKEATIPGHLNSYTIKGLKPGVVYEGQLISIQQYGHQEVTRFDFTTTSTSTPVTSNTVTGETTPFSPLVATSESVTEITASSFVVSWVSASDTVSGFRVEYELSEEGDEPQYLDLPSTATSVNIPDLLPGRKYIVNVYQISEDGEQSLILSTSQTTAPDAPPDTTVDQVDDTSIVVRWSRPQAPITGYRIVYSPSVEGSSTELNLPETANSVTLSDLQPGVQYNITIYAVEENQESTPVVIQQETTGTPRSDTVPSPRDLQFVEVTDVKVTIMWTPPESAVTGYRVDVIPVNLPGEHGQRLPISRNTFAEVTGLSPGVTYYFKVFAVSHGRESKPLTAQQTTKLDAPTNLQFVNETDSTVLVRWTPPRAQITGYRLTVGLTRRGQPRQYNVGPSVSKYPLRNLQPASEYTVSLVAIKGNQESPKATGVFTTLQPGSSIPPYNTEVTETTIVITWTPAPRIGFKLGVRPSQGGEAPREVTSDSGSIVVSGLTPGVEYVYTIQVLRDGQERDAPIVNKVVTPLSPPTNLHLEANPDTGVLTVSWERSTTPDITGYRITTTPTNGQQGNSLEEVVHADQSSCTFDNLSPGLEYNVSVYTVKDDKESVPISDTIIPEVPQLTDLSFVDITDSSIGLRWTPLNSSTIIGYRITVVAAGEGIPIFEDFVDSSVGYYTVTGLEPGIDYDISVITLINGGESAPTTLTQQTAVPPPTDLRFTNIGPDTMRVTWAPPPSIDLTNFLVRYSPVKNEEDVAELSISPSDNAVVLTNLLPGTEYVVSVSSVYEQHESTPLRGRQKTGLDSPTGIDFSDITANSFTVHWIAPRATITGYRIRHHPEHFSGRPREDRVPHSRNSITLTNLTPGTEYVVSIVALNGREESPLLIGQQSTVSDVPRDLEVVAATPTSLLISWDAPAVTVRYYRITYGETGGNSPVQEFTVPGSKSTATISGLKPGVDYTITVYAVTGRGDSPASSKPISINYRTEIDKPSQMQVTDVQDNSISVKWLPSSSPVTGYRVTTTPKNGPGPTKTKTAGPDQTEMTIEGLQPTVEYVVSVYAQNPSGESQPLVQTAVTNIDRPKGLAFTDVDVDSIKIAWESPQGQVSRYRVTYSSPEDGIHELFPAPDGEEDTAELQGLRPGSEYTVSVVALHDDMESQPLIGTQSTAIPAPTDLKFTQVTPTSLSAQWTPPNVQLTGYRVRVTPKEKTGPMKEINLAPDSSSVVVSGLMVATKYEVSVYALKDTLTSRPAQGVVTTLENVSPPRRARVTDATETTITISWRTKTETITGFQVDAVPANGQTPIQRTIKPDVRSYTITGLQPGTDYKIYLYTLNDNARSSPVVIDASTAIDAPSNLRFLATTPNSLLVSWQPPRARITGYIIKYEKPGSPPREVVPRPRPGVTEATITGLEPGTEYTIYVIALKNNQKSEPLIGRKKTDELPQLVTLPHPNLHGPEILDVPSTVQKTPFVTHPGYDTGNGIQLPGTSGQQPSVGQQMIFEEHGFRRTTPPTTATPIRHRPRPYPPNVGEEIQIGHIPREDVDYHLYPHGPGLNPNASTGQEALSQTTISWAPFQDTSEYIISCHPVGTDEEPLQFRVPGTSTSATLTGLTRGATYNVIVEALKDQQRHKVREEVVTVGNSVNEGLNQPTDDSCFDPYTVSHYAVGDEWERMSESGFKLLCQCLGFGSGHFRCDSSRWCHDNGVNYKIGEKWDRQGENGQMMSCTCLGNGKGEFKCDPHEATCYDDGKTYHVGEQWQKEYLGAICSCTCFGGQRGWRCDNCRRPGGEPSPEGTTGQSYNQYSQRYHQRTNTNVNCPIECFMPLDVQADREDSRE

**Q.** With “CKDQSPLAGESGETEYITEVYGNQQNPVDIDKKLPNETGFSGNMVETEDT (also: His tag) [pUR4]” as the sequence, how does the fibronectin polymerization [1] read?
**A.** inhibit

**Q.** And the “fibronectin production or secretion” value [1]?
**A.** not its production or secretion

**Q.** What about the “kidney weight / kidney weight-to-body weight ratio” value [2, 5] of the same sequence?
**A.** partially restored; also recorded: significantly recovered

**Q.** What about the “mature fibrillar collagen, second harmonic generation (SHG)” value [2, 5] of the same sequence?
**A.** alleviation of fibrotic collagen deposition; also recorded: decreased kidney fibrosis

**Q.** What about the “collagen deposition and maturation, picrosirius red staining (brightfield and polarized light)” value ([2]; 2 weeks after UIR, pUR4 vs III-11C, 25 mg/kg/d) of the same sequence?
**A.** decreased; also recorded: attenuated

**Q.** And the “periglomerular fibrosis (fibronectin, α-SMA and vimentin surrounding glomeruli)” value ([2]; 14 days after UIR, 25 mg/kg/d)?
**A.** reduced periglomerular fibrosis

**Q.** And the “alpha-smooth muscle actin (α-SMA) expression / positive cells, immunostaining” value [2, 6]?
**A.** abrogated; also recorded: diminished

**Q.** And the “collagen I deposition, immunofluorescence” value [2, 6]?
**A.** reduces this expansion; also recorded: concomitant decrease

**Q.** And the “fibronectin deposition in kidney interstitium, immunofluorescence” value [2, 6]?
**A.** reduces this expansion; also recorded: decreased the amount of fibronectin

**Q.** What about the “vimentin expression / expansion of vimentin-positive cells outside the glomerulus, immunostaining” value [2, 6] of the same sequence?
**A.** abrogated; also recorded: diminished

**Q.** What about the “CD45+ immune cell accumulation, immunostaining” value [2, 7] of the same sequence?
**A.** abrogated

**Q.** And the “tubule damage and cellular infiltration, H&E staining” value [2, 7]?
**A.** abrogates; also recorded: decrease in cellular infiltrate and reduced tubule damage

**Q.** And the “Havcr1 transcript expression, qPCR of kidney lysates” value [2, 8]?
**A.** nearly abolished; also recorded: significantly reduced

**Q.** What about the “lipocalin-2 (Lcn-2) transcript expression, qPCR of kidney lysates” value [2, 8] of the same sequence?
**A.** nearly abolished; also recorded: significantly reduced

**Q.** And the “NGAL (lipocalin-2) protein expression, immunofluorescent staining” value [2, 9]?
**A.** decreased

**Q.** And the “Tim-1/Kim-1 (Havcr1) protein expression, immunofluorescent staining” value [2, 9]?
**A.** decreased

**Q.** What about the “effect of injection in animals that underwent sham surgery” value ([2]; sham surgery, PBS vs III-11C vs pUR4) of the same sequence?
**A.** no differences were observed

**Q.** And the fibrosis [3]?
**A.** attenuate fibrosis

**Q.** And the “excess ECM deposition” value (vascular remodeling)?
**A.** attenuates

**Q.** And the “deposition of ECM proteins” value ([4]; after myocardial I/R)?
**A.** attenuated

**Q.** What about the neutrophil infiltration ([4]; after myocardial I/R) of the same sequence?
**A.** reduced

**Q.** And the “proliferation of activated cardiac myofibroblasts” value ([4]; after myocardial I/R)?
**A.** reduced

**Q.** And the cardiac function [4, 10]?
**A.** improves

**Q.** What about the “pathologic fibrosis and cardiac remodeling” value [4, 10] of the same sequence?
**A.** decreases

**Q.** What about the “excess ECM deposition” value (liver fibrosis) of the same sequence?
**A.** attenuates
